Results published in ChEMBL document CHEMBL1125177, “Pseudopeptide analogues of substance P and leucine enkephalinamide containing the psi (CH2O) modification: synthesis and biological activity” (J Med Chem, 1991).
Values belong to the compound of their own block, whether it stands above or below them. Active and inactive are the calls of the source. The calls are words filed in the database; no cut-off is given here. Starred links: 1 amine or outer side, 2 acyl side, 3 side chain; linkers in the order of their positions; H or OH if unused. Non-standard residues stand in square brackets, D forms with d. Residues, ends and D or L forms follow the SMILES beside them. X3 = O=C(CCC(=O)[*:2])[C@H](Cc1ccccc1)N[*:1]; X4 = O=C(C/C=C/[C@H](Cc1ccccc1)N[*:1])[*:2]; X1 = O=C(COC[C@H](Cc1ccccc1)N[*:1])[*:2]; NMeF = CN[C@@H](Cc1ccccc1)C(=O)O; pGlu = O=C1CC[C@@H](C(=O)O)N1; AEA = NCCOCC(=O)O; Ava = NCCCCC(=O)O; Sar = CNCC(=O)O

Experiments:
[1] = species: Cavia porcellus; assay: Relative potency to that of [D-Ala2,Leu5]enkephalinamide in guinea pig ileum; assay type: functional
[2] = species: Cavia porcellus; assay: Relative potency to that of [DAla2,Leu5]enkaphalinamide.; assay type: functional
[3] = species: Cavia porcellus; assay: Inhibitory effect was measured on guinea pig ileum for maximal contraction; assay type: functional
[4] = species: Mus musculus; assay: Inhibitory effect was measured on mouse vas deferens; assay type: functional
[5] = species: Mus musculus; assay: Relative potency to that of [D-Ala2, Leu5]-enkaphalinamide in mouse vas deferens; assay type: functional
[6] = Ratio of IC50 measured in MVD to that of GPI.; assay type: functional
[7] = target: Delta-type opioid receptor (Rattus norvegicus, UniProt P33533); assay: Binding affinity to opioid receptor delta was determined in rat brain using [3H]DSTBULET as radioligand; assay type: tissue-based
[8] = target: Delta-type opioid receptor (Rattus norvegicus) (UniProt P33533); assay: It is the ratio of Ki value for delta receptor to that of opioid receptor mu
[9] = target: Mu-type opioid receptor (Rattus norvegicus, UniProt P33535); assay: Binding affinity to opioid receptor mu was determined in rat brain using [3H]DAGO as radioligand; assay type: tissue-based
[10] = species: Cavia porcellus; assay: Effective concentration was determined using guinea pig ileum; assay type: functional
[11] = species: Cavia porcellus; assay: Relative potency to that of [pGlu6]SP6-11 in guinea pig ileum; assay type: functional
[12] = species: Mus musculus; assay: Inhibitory effect was measured on mouse vas deferens; c = Did not show agonist activity up to 10E-5 M; assay type: functional
[13] = species: Mus musculus; assay: Relative potency to that of [D-Ala2, Leu5]-enkaphalinamide in mouse vas deferens; c = Did not show agonist activity up to 10E-5 M; assay type: functional
[14] = Ratio of IC50 measured in MVD to that of GPI; c= Did not show agonist activity up to 10E-5 M.; assay type: functional
[15] = species: Cavia porcellus; assay: Effective dose was measured on guinea pig ileum for maximal contraction; assay type: functional
[16] = target: T1, Neuromedin-K receptor (Cavia porcellus) (UniProt P30098); assay: Relative potency as ratio of the EC50 value of analogue to that of [PGlu6]SP6-11 in tachykinin receptor 3 in guinea pig ileum; assay type: functional, tissue-based
T1 sequence (whole entry): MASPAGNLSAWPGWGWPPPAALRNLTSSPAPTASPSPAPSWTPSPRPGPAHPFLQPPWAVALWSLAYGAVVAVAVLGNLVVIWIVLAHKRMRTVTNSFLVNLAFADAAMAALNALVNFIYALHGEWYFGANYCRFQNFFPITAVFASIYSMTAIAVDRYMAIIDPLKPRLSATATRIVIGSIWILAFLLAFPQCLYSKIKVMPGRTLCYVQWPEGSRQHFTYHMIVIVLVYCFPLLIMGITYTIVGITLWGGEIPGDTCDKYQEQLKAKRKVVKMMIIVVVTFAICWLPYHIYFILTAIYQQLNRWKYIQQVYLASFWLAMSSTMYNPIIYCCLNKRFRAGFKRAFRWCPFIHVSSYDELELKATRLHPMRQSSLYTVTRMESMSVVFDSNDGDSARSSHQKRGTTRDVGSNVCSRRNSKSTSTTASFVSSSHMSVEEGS

[17] = target: T2, Neuromedin-K receptor (Cavia porcellus, UniProt P30098); assay: Effective dose was measured on NK3 receptors of guinea pig ileum for maximal contraction in the presence of 10e-7 M substance P methyl ester; assay type: functional, tissue-based
T2 sequence (P30098 whole entry): T1 sequence (whole entry)

[18] = target: Substance-P receptor (Cavia porcellus, UniProt P30547); assay: Effective dose was measured on NK1 receptors of guinea pig ileum for maximal contraction in the presence of 3*10e-7 M atropine; assay type: functional, tissue-based
[19] = species: Rattus norvegicus; assay: Inhibitory effect was measured on electrically stimulated rat vas deferens contraction; assay type: functional
[20] = Ratio of NK-1 receptor to that of NK-3 receptor; assay type: functional
[21] = species: Cavia porcellus; assay: Relative potency as ratio of the EC50 value of analogue to that of [PGlu6]SP6-11 in achykinin receptor 3 in guinea pig ileum; assay type: functional
[22] = target: T2, Neuromedin-K receptor; assay: Effective dose was measured on NK3 receptors of guinea pig ileum for maximal contraction in the presence of 10e-7 M substance P methyl ester.; assay type: functional, tissue-based

Delta-type opioid receptor, sequence (P33533 whole entry): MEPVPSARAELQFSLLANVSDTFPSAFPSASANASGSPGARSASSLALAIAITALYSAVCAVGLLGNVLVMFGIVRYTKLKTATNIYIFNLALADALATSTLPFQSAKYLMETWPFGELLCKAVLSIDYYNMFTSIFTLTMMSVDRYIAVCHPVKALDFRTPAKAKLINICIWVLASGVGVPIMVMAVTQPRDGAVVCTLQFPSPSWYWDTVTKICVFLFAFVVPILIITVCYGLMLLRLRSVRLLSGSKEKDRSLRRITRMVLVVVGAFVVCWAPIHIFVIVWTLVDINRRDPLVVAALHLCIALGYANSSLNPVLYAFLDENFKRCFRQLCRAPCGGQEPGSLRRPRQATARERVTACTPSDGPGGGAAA
Substance-P receptor, sequence (P30547 whole entry): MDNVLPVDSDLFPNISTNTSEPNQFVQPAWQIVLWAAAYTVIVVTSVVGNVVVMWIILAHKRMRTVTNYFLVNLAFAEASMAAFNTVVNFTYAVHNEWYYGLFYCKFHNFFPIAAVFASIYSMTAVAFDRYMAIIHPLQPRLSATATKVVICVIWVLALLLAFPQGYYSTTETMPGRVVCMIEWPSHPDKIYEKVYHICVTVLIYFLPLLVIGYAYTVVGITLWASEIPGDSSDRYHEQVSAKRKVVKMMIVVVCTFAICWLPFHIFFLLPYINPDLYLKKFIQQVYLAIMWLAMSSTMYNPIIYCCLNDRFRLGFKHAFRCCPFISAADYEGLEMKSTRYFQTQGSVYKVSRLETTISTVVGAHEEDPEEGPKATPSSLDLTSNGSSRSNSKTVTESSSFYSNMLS
Mu-type opioid receptor, sequence (P33535 whole entry): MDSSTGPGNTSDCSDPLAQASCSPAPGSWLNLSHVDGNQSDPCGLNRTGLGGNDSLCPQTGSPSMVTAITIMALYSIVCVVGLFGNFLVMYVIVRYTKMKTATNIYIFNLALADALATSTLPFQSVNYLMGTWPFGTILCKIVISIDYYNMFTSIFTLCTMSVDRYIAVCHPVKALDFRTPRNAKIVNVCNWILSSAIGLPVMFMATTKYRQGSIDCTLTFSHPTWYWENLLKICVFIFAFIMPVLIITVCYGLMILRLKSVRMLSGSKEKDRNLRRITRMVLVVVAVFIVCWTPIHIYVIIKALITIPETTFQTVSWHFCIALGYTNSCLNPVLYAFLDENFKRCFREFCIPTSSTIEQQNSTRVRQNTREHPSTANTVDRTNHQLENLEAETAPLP
Delta-type opioid receptor (Rattus norvegicus), sequence (P33533 whole entry): as the sequence (P33533 whole entry) above

SMILES: CSCC[C@H](NC(=O)[C@H](Cc1ccccc1)NC(=O)CNC(=O)CCC[C@H](N)Cc1ccc(O)cc1)C(N)=O
Relative potency [1]: 3%

SMILES: CSCC[C@H](NC(=O)[C@H](Cc1ccccc1)NC(=O)CN(C)C(=O)CNC(=O)[C@@H](N)Cc1ccc(O)cc1)C(=O)O
Relative potency [1]: 0.1%

SMILES: CSCC[C@H](NC(=O)[C@H](Cc1ccccc1)NC(=O)CNCCNC(=O)[C@@H](N)Cc1ccc(O)cc1)C(N)=O
Relative potency [1]: 0.3%

SMILES: CC(C)C[C@H](NC(=O)[C@H](Cc1ccccc1)NC(=O)C/N=C(\S)CNC(=O)[C@@H](N)Cc1ccc(O)cc1)C(=O)O
Relative potency [1]: 400%

SMILES: CC(C)C[C@H](NC(=O)[C@H](Cc1ccccc1)NC(=O)CSCCNC(=O)[C@@H](N)Cc1ccc(O)cc1)C(=O)O
Relative potency [1]: <1%

SMILES: CSCC[C@H](NC(=O)[C@H](Cc1ccccc1)NC(=O)CNC(=O)CN(C)C(=O)[C@@H](N)Cc1ccc(O)cc1)C(=O)O
Relative potency [1]: <2.1%

SMILES: CSCC[C@H](NC(=O)[C@H](Cc1ccccc1)NC(=O)CNC(=O)CNC[C@@H](N)Cc1ccc(O)cc1)C(N)=O
Relative potency [1]: 56%

IC50 [3]: 32 nM
IC50 [4]: 11.8 nM
SMILES: CC(C)C[C@H](NC(=O)[C@H](Cc1ccccc1)NC(=O)COC[C@@H](C)NC(=O)[C@@H](N)Cc1ccc(O)cc1)C(N)=O
Relative potency [2]: 1%
Relative potency [5]: 1%
Ratio [6]: 0.37

SMILES: N[C@@H](Cc1ccc(O)cc1)C(=O)NC/C=C/CC(=O)N[C@@H](Cc1ccccc1)C(=O)N1CCC[C@H]1C(=O)O
Relative potency [1]: 0.1%

SMILES: CC(C)C[C@H](NC(=O)[C@H](Cc1ccccc1)NC(=O)CNC(=O)COC[C@@H](N)Cc1ccc(O)cc1)C(N)=O
Relative potency [1]: 106%
Relative potency [2]: 1.06%
IC50 [3]: 30 nM
IC50 [4]: 92 nM
Relative potency [5]: 0.13%
Ki [7]: 7.78 nM
Ratio [8]: 2.12
Ki [9]: 3.69 nM
Ratio [6]: 3.12

IC50 [3]: 350 nM
IC50 [4]: 0.54 nM
SMILES: CC(C)CC(NC(=O)[C@H](Cc1ccccc1)NC(=O)COC[C@@H](CO)NC(=O)C(N)Cc1ccc(O)cc1)C(=O)N[C@H](C(=O)O)[C@@H](C)O (stereo not given in full)
Relative potency [2]: 0.09%
Relative potency [5]: 21.8%
Ratio [6]: 0.0015

EC50 [10]: 2 nM
SMILES: CSCC[C@H](NC(=O)[C@H](CC(C)C)NC(=O)CC(=O)N[C@H](Cc1ccccc1)NC(=O)[C@H](Cc1ccccc1)NC(=O)[C@@H]1CCC(=O)N1)C(N)=O
Relative potency [11]: 22%

SMILES: CSCC[C@H](NC(=O)[C@H](Cc1ccccc1)NC(=O)CNC(=O)[C@@H](C)NC(=O)[C@@H](N)Cc1ccc(O)cc1)C(N)=O
Relative potency [1]: 1.1%
IC50 [3]: 29 nM
IC50 [4]: 4.2 nM
Relative potency [5]: 2.8%
Ratio [6]: 0.14

SMILES: CC(C)C[C@H](NC(=O)[C@H](Cc1ccccc1)NC(=O)CNC(=O)CSC[C@@H](N)Cc1ccc(O)cc1)C(=O)O
Relative potency [1]: 24.1%

SMILES: COC(=O)[C@H](CC(C)C)NC(=O)[C@H](Cc1ccccc1)NC(=O)CNC(=O)C/C=C/[C@@H](N)Cc1ccc(O)cc1
Relative potency [1]: 300%

SMILES: CC(C)C[C@H](NC(=O)[C@H](Cc1ccccc1)NC(=O)COCCNC(=O)[C@@H](N)Cc1ccc(O)cc1)C(N)=O (H-Y[AEA]FL-NH2)
Relative potency [1]: 1.4%
Relative potency [2]: 0.014%
IC50 [3]: 2300 nM
IC50 [12]: Not Active
Relative potency [13]: inactive
Ki [7]: 9200 nM
Ratio [8]: 6.66
Ki [9]: 1380 nM
Ratio [14]: inactive

SMILES: CSCC[C@H](NC(=O)[C@H](Cc1ccccc1)NC(=O)CCCCNC(=O)[C@@H](N)Cc1ccc(O)cc1)C(N)=O (H-Y[Ava]FM-NH2)
Relative potency [1]: <0.3%

EC50 [15]: 1.2 nM
Relative potency [16]: 100%
EC50 [17]: 5 nM
EC50 [18]: 2.2 nM
EC50 [19]: 20000 nM
Ratio [20]: 0.44
SMILES: CSCC[C@H](NC(=O)[C@H](CC(C)C)NC(=O)CNC(=O)[C@H](Cc1ccccc1)NC(=O)[C@H](Cc1ccccc1)NC(=O)[C@@H]1CCC(=O)N1)C(N)=O ([pGlu]FFGLM-NH2)

EC50 [10]: 2 nM
SMILES: CSCC[C@H](NC(=O)[C@H](CC(C)C)NC(=O)CN(C)C(=O)[C@H](Cc1ccccc1)NC(=O)[C@H](Cc1ccccc1)NC(=O)[C@@H]1CCC(=O)N1)C(N)=O ([pGlu]FF[Sar]LM-NH2)
Relative potency [11]: 80%

EC50 [15]: 0.4 nM
EC50 [22]: 0.9 nM
EC50 [18]: 600 nM
EC50 [19]: 20000 nM
Ratio [20]: 670
SMILES: CSCC[C@H](NC(=O)[C@H](CC(C)C)NC(=O)CNC(=O)[C@H](Cc1ccccc1)N(C)C(=O)[C@H](Cc1ccccc1)NC(=O)[C@@H]1CCC(=O)N1)C(N)=O ([pGlu]F[NMeF]GLM-NH2)
Relative potency [21]: 555%

EC50 [10]: 2 nM
EC50 [15]: 4.8 nM
Relative potency [16]: 40%
EC50 [22]: 12.5 nM
EC50 [18]: 39.6 nM
EC50 [19]: 2000 nM
Ratio [20]: 3.16
SMILES: CSCC[C@H](NC(=O)[C@H](CC(C)C)NC(=O)COC[C@H](Cc1ccccc1)NC(=O)[C@H](Cc1ccccc1)NC(=O)[C@@H]1CCC(=O)N1)C(N)=O ([pGlu]F[X1]LM-NH2)
Relative potency [11]: 25%

EC50 [10]: 2 nM
SMILES: CSCC[C@H](NC(=O)[C@H](CC(C)C)NC(=O)CCC(=O)[C@H](Cc1ccccc1)NC(=O)[C@H](Cc1ccccc1)NC(=O)[C@@H]1CCC(=O)N1)C(N)=O ([pGlu]F[X3]LM-NH2)
Relative potency [11]: 70%

EC50 [10]: 2 nM
SMILES: CSCC[C@H](NC(=O)[C@H](CC(C)C)NC(=O)C/C=C/[C@H](Cc1ccccc1)NC(=O)[C@H](Cc1ccccc1)NC(=O)[C@@H]1CCC(=O)N1)C(N)=O ([pGlu]F[X4]LM-NH2)
Relative potency [11]: 24%

SMILES: C[C@@H](NC(=O)[C@@H](N)Cc1ccc(O)cc1)C(=O)NCC(=O)N(C)[C@@H](Cc1ccccc1)C(=O)NCCO [DAMGO]
IC50 [3]: 18 nM
IC50 [4]: 51.5 nM
Ki [7]: 629 nM
